Measurements reported in patent US10800741B2 (ANCUREALL PHARMACEUTICAL (SHANGHAI) CO., LTD., priority 2017, dated 2020).

Assays:
JIMT-1 = test: In vitro growth inhibition of JIMT-1 cells; type: cell-based; conditions: Homo sapiens, FGFR1 amp, HER2 amp, PI3KCA C420R
Procedure: (§1) Adherent cells were digested with 0.25% trypsin-EDTA (Gibco). Suspension culture cells were collected by centrifugation (1700 rpm, 3 minutes). The supernatant was discarded and the cells were counted. According to each cell growth cycle, different concentrations of cells were prepared (5˜10×10^4 cells per ml), and inoculated to 96-well plates (Corning), with 100 μl per well, and incubated overnight at 37° C., 5% CO2. The next day, the test compound was added to the cultured cells (2 wells in parallel). The final concentration of the solvent was less than 1/1,000. The cells were further cultured for 3 to 5 days and assayed by MTT.
(§2) The MTT test reagent was a Dojindo CCK8 kit and the Microplate Reader was a THERMO […] FC instrument.
(§3) The adherent cells were taken out from the cell culture medium, and immediately added to a freshly prepared complete medium containing 10% CCK8 (5% FBS), 100 ul per hole. The suspended cells were directly added to a CCK8 reagent until reaching a final concentration of 10% and cultured for 1 to 4 hours. When a dark yellow color could be observed in the solvent control wells, the absorbance value at OD450 nm was measured and the cell growth rate was calculated according to the following formula: Cell Growth Rate (%)=100×(T−T0)/(C−T0)
(§4) T=optical density of drug-treated cell wells−optical density of blank control wells; T0=optical density of cell wells before drug treatment−optical density of blank control wells; C=optical density of solvent control wells−optical density of blank control wells. […] The experiments were repeated 1 to 3 times and a statistical analysis of data was conducted.
(§5) Mutations in the FGFR1-4 gene often occur in different types of cancer patients. In order to test the growth inhibition activity of the present compound against tumor cells expressing different FGFR variants, tumor cell lines expressing representative FGFR1-4 were selected for further determining the activity of compounds 25, 66, 38 and 95 of the present invention. BGJ398, a selective inhibitor of FGFR1-4, was used as the control compound. The specific test method is the same as test example 1.

Karpas 299 (NPM-ALK) = test: In vitro growth inhibition of Karpas 299 tumor cells (MTT/CCK8); type: cell-based, Human; conditions: Homo sapiens, KARPAS-299; in vitro growth inhibition (or induction of apoptosis), cells cultured 3 to 5 days, MTT (CCK8); read-out: IC50 Karpas 299 (NPM-ALK)
MDA-MB-453 = test: In vitro growth inhibition of MDA-MB-453 cells; type: cell-based; conditions: Homo sapiens, PI3KCA H1047R, FGFR4+++/Y367C
Procedure: as §1, §2, §3, §4, §5

MOLM-13 (FLT3-ITD) = test: In vitro growth inhibition of MOLM-13 tumor cells (MTT/CCK8); type: cell-based, Human; conditions: Homo sapiens, MOLM-13; in vitro growth inhibition (or induction of apoptosis), cells cultured 3 to 5 days, MTT (CCK8); read-out: IC50 MOLM-13 (FLT3-ITD)
Huh-7 = test: In vitro growth inhibition of Huh-7 cells; type: cell-based; conditions: Homo sapiens, FGFR3+++, FGFR4 +++
Procedure: as §1, §2, §3, §4, §5

A375 = test: In vitro growth inhibition of A375 cells; type: cell-based; conditions: Homo sapiens, A-375, BRAF V600E, FGFR2 mutant
Procedure: as §1, §2, §3, §4, §5

PLC/PRF/5 = test: In vitro growth inhibition of PLC/PRF/5 cells; type: cell-based; conditions: Homo sapiens, FGFR3+++, FGFR4 +++
Procedure: as §1, §2, §3, §4, §5

Hep3B2 (FGFR3/4+++) = test: In vitro growth inhibition of Hep3B2 tumor cells (MTT/CCK8); type: cell-based, Human; conditions: Homo sapiens, Hep3B; in vitro growth inhibition (or induction of apoptosis), cells cultured 3 to 5 days, MTT (CCK8); read-out: IC50 Hep3B2 (FGFR3/4+++)
MFM-223 = test: In vitro growth inhibition of MFM-223 cells; type: cell-based; conditions: Homo sapiens, PI3KCA H1047R, FGFR1 amp, FGFR2 amp
Procedure: as §1, §2, §3, §4, §5

Kasumi-1 (KIT N822K) = test: In vitro growth inhibition of Kasumi-1 tumor cells (MTT/CCK8); type: cell-based, Human; conditions: Homo sapiens, Kasumi 1; in vitro growth inhibition (or induction of apoptosis), cells cultured 3 to 5 days, MTT (CCK8); read-out: IC50 Kasumi-1 (KIT N822K)
SNU-16 = test: In vitro growth inhibition of SNU-16 cells; type: cell-based; conditions: Homo sapiens, FGFR2 amp
Procedure: as §1, §2, §3, §4, §5

AN3-CA = test: In vitro growth inhibition of AN3-CA cells; type: cell-based; conditions: Homo sapiens, FGFR2 mutant
Procedure: as §1, §2, §3, §4, §5

DMS114 = test: In vitro growth inhibition of DMS114 cells; type: cell-based; conditions: Homo sapiens, DMS-114, FGFR1 amp
Procedure: as §1, §2, §3, §4, §5

Cal-120 = test: In vitro growth inhibition of Cal-120 cells; type: cell-based; conditions: Homo sapiens, FGFR1 amp
Procedure: as §1, §2, §3, §4, §5

JHH-7 = test: In vitro growth inhibition of JHH-7 cells; type: cell-based; conditions: Homo sapiens, JHH7, FGFR3+++, FGFR4 +++
Procedure: as §1, §2, §3, §4, §5

H1581 (FGFR1 amp) = test: In vitro growth inhibition of H1581 tumor cells (MTT/CCK8); type: cell-based, Human; conditions: Homo sapiens, NCI-H1581; in vitro growth inhibition (or induction of apoptosis), cells cultured 3 to 5 days, MTT (CCK8); read-out: IC50 H1581 (FGFR1 amp)
RT112/84 = test: In vitro growth inhibition of RT112/84 cells; type: cell-based; conditions: Homo sapiens, FGFR3-TACC3
Procedure: as §1, §2, §3, §4, §5

KCL-22 (BCR-ABL) = test: In vitro growth inhibition of KCL-22 tumor cells (MTT/CCK8); type: cell-based, Human; conditions: Homo sapiens, KCL-22; in vitro growth inhibition (or induction of apoptosis), cells cultured 3 to 5 days, MTT (CCK8); read-out: IC50 KCL-22 (BCR-ABL)
KATO III (FGFR2 amp) = test: In vitro growth inhibition of KATO III tumor cells (MTT/CCK8); type: cell-based, Human; conditions: Homo sapiens, KATO III; in vitro growth inhibition (or induction of apoptosis), cells cultured 3 to 5 days, MTT (CCK8); read-out: IC50 KATO III (FGFR2 amp)
Hep G2 = test: In vitro growth inhibition of Hep G2 cells; type: cell-based; conditions: Homo sapiens, HepG2, FGFR3+++, FGFR4 +++
Procedure: as §1, §2, §3, §4, §5

H1703 (PDGFRa amp) = test: In vitro growth inhibition of H1703 tumor cells (MTT/CCK8); type: cell-based, Human; conditions: Homo sapiens, NCI-H1703; in vitro growth inhibition (or induction of apoptosis), cells cultured 3 to 5 days, MTT (CCK8); read-out: IC50 H1703 (PDGFRa amp)
Jurkat = test: In vitro growth inhibition of FLT3 wild-type normal expressing cells Jurkat; type: cell-based; conditions: Homo sapiens, cells normally expressing FLT3 wild-type
Procedure: as §1, §2, §3, §4
(§6) The present compounds which has a high growth inhibition activity on tumor cells positive expressing FLT3-ITD were selected for the determination of IC50 concentration on FLT3 wild tyoverexpressing cells RS4:11 and FLT3 wild-type normal expressing cells Jurkat. The specific test method is the same as that of test example 1.

RS4:11 = test: In vitro growth inhibition of FLT3 wild type overexpressing cells RS4:11; type: cell-based; conditions: Homo sapiens, cells over expressing FLT3 wild-type
Procedure: as §1, §2, §3, §4, §6

SMILES	IC50 (JIMT-1)	IC50 (Karpas 299 (NPM-ALK))	IC50 (MDA-MB-453)	IC50 (MOLM-13 (FLT3-ITD))	IC50 (Huh-7)	IC50 (A375)	IC50 (Hep3B2 (FGFR3/4+++))	IC50 (MFM-223)	IC50 (Kasumi-1 (KIT N822K))	IC50 (SNU-16)	IC50 (AN3-CA)	IC50 (DMS114)	IC50 (Cal-120)	IC50 (JHH-7)	IC50 (H1581 (FGFR1 amp))	IC50 (KCL-22 (BCR-ABL))	IC50 (KATO III (FGFR2 amp))	IC50 (H1703 (PDGFRa amp))	IC50 (Jurkat)	IC50 (RS4:11)	also measured
COc1cc2nccc(Oc3ccc(NC(=O)Nc4cc(C(C)(C)C)n[nH]4)c(Cl)c3)c2cc1C(N)=O [Compound 25, 4-{4-[3-(5-tert-butyl-2H-pyrazol-3-yl)-ureido]-3-chloro-phenoxy}-7-methoxyquinolin-6-carboxamide]	467 nM	600 nM	309 nM	19.1 nM	7.12 nM	129 nM	14.2 nM	21.6 nM	44 nM	1.95 nM	4.95 nM	15.6 nM	64.7 nM	4.88 nM	9.7 nM	16.4 nM	0.24 nM	13.5 nM			IC50 (PLC/PRF/5): 2.95 nM; IC50 (RT112/84): 31.5 nM; IC50 (Hep G2): 127 nM
CCN1CCN(c2ccc(Nc3cc(N(C)C(=O)Nc4c(Cl)c(OC)cc(OC)c4Cl)ncn3)cc2)CC1 [BGJ398, reference compound]	> 1000 nM	> 1000 nM	> 1000 nM		30.9 nM	> 1000 nM	38.9 nM	> 1000 nM	> 1000 nM	2.18 nM	62.1 nM	6.97 nM	> 1000 nM	31.8 nM	6.97 nM	> 1000 nM	0.461 nM	> 1000 nM			IC50 (RT112/84): 8.12 nM
COc1cc2nccc(Oc3ccc(NC(=O)Nc4cc(C(C)(C)C)n[nH]4)cc3C)c2cc1C(N)=O [Compound 35, 4-{4-[3-(5-tert-butyl-2H-pyrazol-3-yl)-ureido]-2-methyl-phenoxy}-7-methoxyquinolin-6-carboxamide]		393 nM		< 0.05 nM			166 nM		7.32 nM						105 nM	16.8 nM	4.45 nM	106 nM	429 nM	> 1000 nM	
COc1cc2nccc(Oc3ccc(NC(=O)Nc4cc(C(C)(C)C)on4)cn3)c2cc1C(N)=O [Compound 24, 4-{5-[3-(5-tert-butyl-isoxazol-3-yl)-ureido]-pyridin-2-yloxy}-7-methoxyquinolin-6-carboxamide]		764 nM		0.99 nM			346 nM		> 1000 nM						493 nM	> 1000 nM	31 nM	83.5 nM	572 nM	> 1000 nM	
COc1cc2nccc(Oc3ccc(NC(=O)Nc4cc(C(C)(C)C)on4)cc3)c2cc1C(N)=O [Compound 1, 4-{4-[3-(5-tert-butyl-isoxazol-3-yl)-ureido]-phenoxy}-7-methoxyquinolin-6-carboxamide]		394 nM		< 0.05 nM			282 nM		90.1 nM						16.1 nM	64.7 nM	1.28 nM	9.45 nM	521 nM	188 nM	
COc1cc2nccc(Oc3ccc(NC(=O)Nc4cc(C(C)(C)C)n[nH]4)cc3Cl)c2cc1C(N)=O [Compound 36, 4-{4-[3-(5-tert-butyl-2H-pyrazol-3-yl)-ureido]-2-chloro-phenoxy}-7-methoxyquinolin-6-carboxamide]		179 nM		< 0.05 nM			78.9 nM		70.8 nM						65.7 nM	31.5 nM	2.62 nM	227 nM	535 nM	750 nM	
